These results are taken from US20260116867A1, “PROTEOLYSIS TARGETING CHIMERAS FOR HUMAN PREGNANE X RECEPTOR AND FOR DEGRADATION OF GSPT1” (ST. JUDE CHILDREN'S RESEARCH HOSPITAL, priority 2022, published 2026).

Test [1] concerns the target T1, PXR (Homo sapiens, UniProt O75469).
T1 sequence (O75469 1-434): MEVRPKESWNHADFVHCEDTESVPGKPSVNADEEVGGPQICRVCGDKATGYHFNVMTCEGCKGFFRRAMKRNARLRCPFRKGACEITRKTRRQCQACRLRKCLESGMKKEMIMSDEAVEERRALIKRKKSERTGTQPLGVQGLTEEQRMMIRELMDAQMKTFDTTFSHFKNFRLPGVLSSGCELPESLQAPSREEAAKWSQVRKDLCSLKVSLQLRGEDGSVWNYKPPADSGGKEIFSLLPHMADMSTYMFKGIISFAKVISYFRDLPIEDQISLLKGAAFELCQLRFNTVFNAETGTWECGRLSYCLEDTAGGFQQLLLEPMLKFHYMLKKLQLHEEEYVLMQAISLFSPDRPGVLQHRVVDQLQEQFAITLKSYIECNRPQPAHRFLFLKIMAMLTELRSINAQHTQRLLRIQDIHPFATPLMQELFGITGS
As to the kind of experiment: cell-based hPXR antagonistic assay. Conditions: for inhibition at 10 µM: read-out: Antagonist (% inhibition at 10 μM); for IC50: read-out: Antagonist (IC50/μM).

Test [2] deals with T1, PXR. As to the kind of experiment: hPXR binding assay. Conditions: for inhibition at 10 µM: read-out: Binding (% inhibition at 10 μM).

The term inhibition denotes the share of the control response that was lost under treatment. For the molecule `COc1ccc(OC)c(-n2nnc(C(=O)Nc3cc(C(C)(C)C)ccc3OCCCCNc3cccc4c3CN(C3CCC(=O)NC3=O)C4=O)c2C)c1` (stereo not shown) [Compound M13, N-(5-(tert-butyl)-2-(4-((2-(2,6-dioxopiperidin-3-yl)-1-oxoisoindolin-4-yl)amino)butoxy)phenyl)-1-(2,5-dimethoxyphenyl)-5-methyl-1H-1,2,3-triazole-4-carboxamide], on PXR [1], the inhibition at 10 µM turned out to be 40% and the IC50 is 41 ± 5.3 µM.
Take `COc1ccc(OC)c(-n2nnc(C(=O)Nc3cc(NC(=O)CCCNC(=O)COc4cccc5c4C(=O)N(C4CCC(=O)NC4=O)C5=O)cc(C(C)(C)C)c3)c2C)c1` (stereo not shown) [Compound M15, N-(3-(tert-butyl)-5-(4-(2-((2-(2,6-dioxopiperidin-3-yl)-1,3-dioxoisoindolin-4-yl)oxy)acetamido)butanamido)phenyl)-1-(2,5-dimethoxyphenyl)-5-methyl-1H-1,2,3-triazole-4-carboxamide]: on PXR [2], the IC50 was 2.19 ± 1.35 µM and the inhibition at 10 µM was 30%.
As to `COc1ccc(OC)c(-n2nnc(C(=O)Nc3cc(OCCCCCCCCN4C(=O)CCC(N5Cc6c(N)cccc6C5=O)C4=O)cc(C(C)(C)C)c3)c2C)c1` (stereo not shown) [Compound N6, N-(3-((8-(3-(4-amino-1-oxoisoindolin-2-yl)-2,6-dioxopiperidin-1-yl)octyl)oxy)-5-(tert-butyl)phenyl)-1-(2,5-dimethoxyphenyl)-5-methyl-1H-1,2,3-triazole-4-carboxamide], at PXR [1], the inhibition at 10 µM is 11% and the IC50 came out at 6.51 ± 0.71 µM.
For `COc1ccc(OC)c(-n2nnc(C(=O)Nc3cc(C(C)(C)C)ccc3OCCCCCCCCOc3cccc4c3C(=O)N(C3CCC(=O)NC3=O)C4=O)c2C)c1` (stereo not shown) [Compound M19, N-(5-(tert-butyl)-2-((8-((2-(2,6-dioxopiperidin-3-yl)-1,3-dioxoisoindolin-4-yl)oxy)octyl)oxy)phenyl)-1-(2,5-dimethoxyphenyl)-5-methyl-1H-1,2,3-triazole-4-carboxamide], at PXR [1], the inhibition at 10 µM amounted to 30% and the IC50 was determined as 2.52 ± 1.38 µM.
In the case of `COc1ccc(OC)c(-n2nnc(C(=O)Nc3cc(OCCCCCCCCOc4cccc5c4C(=O)N(C4CCC(=O)NC4=O)C5=O)cc(C(C)(C)C)c3)c2C)c1` (stereo not shown) [Compound M16, N-(3-(tert-butyl)-5-((8-((2-(2,6-dioxopiperidin-3-yl)-1,3-dioxoisoindolin-4-yl)oxy)octyl)oxy)phenyl)-1-(2,5-dimethoxyphenyl)-5-methyl-1H-1,2,3-triazole-4-carboxamide], on PXR [1], the inhibition at 10 µM turned out to be 57% and the IC50 amounted to 2.02 ± 0.47 µM.
As for `COc1ccc(OC)c(-n2nnc(C(=O)Nc3cc(C(C)(C)C)ccc3OCCOCCOCCOCCOCCOCCOc3cccc4c3C(=O)N(C3CCC(=O)NC3=O)C4=O)c2C)c1` (stereo not shown) [Compound M20, N-(5-(tert-butyl)-2-((17-((2-(2,6-dioxopiperidin-3-yl)-1,3-dioxoisoindolin-4-yl)oxy)-3,6,9,12,15-pentaoxaheptadecyl)oxy)phenyl)-1-(2,5-dimethoxyphenyl)-5-methyl-1H-1,2,3-triazole-4-carboxamide], the IC50 came out at 4.9 ± 0.8 µM at PXR [2] and 6.33 ± 0.74 µM at PXR [1]. The inhibition at 10 µM was 64% at PXR [2] and 58% at PXR [1].
In the case of `COc1ccc(OC)c(-n2nnc(C(=O)Oc3cccc4c3C(=O)N(C3CCC(=O)NC3=O)C4=O)c2C)c1` (stereo not shown) [Compound M2, 2-(2,6-dioxopiperidin-3-yl)-1,3-dioxoisoindolin-4-yl 1-(2,5-dimethoxyphenyl)-5-methyl-1H-1,2,3-triazole-4-carboxylate], at PXR [2], the IC50 came to 2.69 ± 1.33 µM and the inhibition at 10 µM was 46%.
